From ChEMBL document CHEMBL1201862, “PubChem BioAssay data set” (2004)
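A five-concentration, 48-hour dose response in 96-well plates underlies each endpoint, interpolated linearly between surrounding concentrations. Here, GI50 denotes the concentration required for 50% inhibition of growth.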 Activity calls are given as the source filed them. Cut-off read from the data, not from the text of the source: active = GI50 up to about 1.1 µM and inactive = higher.

Assays:
Assay in all cases: DTP human tumour cell line panel, 48 h
U-251 = test system: U-251
NCI-H522 = test system: NCI-H522
PC-3 = test system: PC-3
SK-MEL-2 = test system: SK-MEL-2
MDA-MB-435 = test system: MDA-MB-435
CAKI-1 = test system: CAKI-1
COLO 205 = test system: COLO 205
A498 = test system: A498
UACC-257 = test system: UACC-257
BT-549 = test system: BT-549
HCT-15 = test system: HCT-15
RXF 393 = test system: RXF 393
SF-539 = test system: SF-539
SF-268 = test system: SF-268
Hs-578T = test system: Hs-578T
OVCAR-4 = test system: OVCAR-4
HL-60 = test system: HL-60
UACC-62 = test system: UACC-62
HT-29 = test system: HT-29
T47D = test system: T47D

| SMILES | GI50 (U-251) | GI50 (NCI-H522) | GI50 (PC-3) | GI50 (SK-MEL-2) | GI50 (MDA-MB-435) | GI50 (CAKI-1) | GI50 (COLO 205) | GI50 (A498) | GI50 (UACC-257) | GI50 (BT-549) | GI50 (HCT-15) [µM] | GI50 (RXF 393) | GI50 (SF-539) | GI50 (SF-268) | GI50 (Hs-578T) | GI50 (OVCAR-4) | GI50 (HL-60) | GI50 (UACC-62) | GI50 (HT-29) | GI50 (T47D) |
| --- | --- | --- | --- | --- | --- | --- | --- | --- | --- | --- | --- | --- | --- | --- | --- | --- | --- | --- | --- | --- |
| S=C(CSc1ccccc1)Nc1cccc2ccccc12 | 38.8 µM (inactive) | 20.9 µM (inactive) | 35.6 µM (inactive) | 24.3 µM (inactive) | 34.1 µM (inactive) | 59 µM (inactive) | 16.4 µM (inactive) | 23.1 µM (inactive) | 22.3 µM (inactive) | 51.6 µM (inactive) | 48.4 | > 100 µM (inactive) | 28.4 µM (inactive) | 61.1 µM (inactive) | 77.1 µM (inactive) | 21.6 µM (inactive) | 40.9 µM (inactive) | 32.7 µM (inactive) | 43.1 µM (inactive) | 40.3 µM (inactive) |
| CN(C)CCCNc1c2c(nc3ccc(Cl)cc13)CCCC2 | 14.9 µM (inactive) | 12.2 µM (inactive) | 13.7 µM (inactive) | 19.3 µM (inactive) | 14.9 µM (inactive) | 23.3 µM (inactive) | 8.51 µM (inactive) | 18 µM (inactive) | 16.3 µM (inactive) | 18.1 µM (inactive) | 13.3 | 12.9 µM (inactive) | 13.5 µM (inactive) | 13.2 µM (inactive) | 19.1 µM (inactive) | 15.3 µM (inactive) | 15.9 µM (inactive) | 16.9 µM (inactive) | 5.47 µM (inactive) | 26.5 µM (inactive) |
| CCOC(=O)c1c(-c2ccccc2)oc(=O)c(Cc2cccc3cccnc23)c1-c1ccccc1 | > 10 µM (inactive) | > 10 µM (inactive) | 9.55 µM (inactive) | > 10 µM (inactive) | > 10 µM (inactive) | > 10 µM (inactive) | > 10 µM (inactive) | > 10 µM (inactive) | > 10 µM (inactive) | > 10 µM (inactive) | > 10 | > 10 µM (inactive) | > 10 µM (inactive) | > 10 µM (inactive) | > 10 µM (inactive) | > 10 µM (inactive) | > 10 µM (inactive) | > 10 µM (inactive) | > 10 µM (inactive) | > 10 µM (inactive) |
| O=C(/C=C/c1ccc(O)c(O)c1)c1cc(O)cc(O)c1 | 10.8 µM (inactive) | 1.71 µM (inactive) | 13.5 µM (inactive) | 13 µM (inactive) | 6.59 µM (inactive) | > 100 µM (inactive) | 17.2 µM (inactive) | 18.9 µM (inactive) | 10.7 µM (inactive) | 8.69 µM (inactive) | 15.7 | 10.4 µM (inactive) | 6.52 µM (inactive) | 9.79 µM (inactive) | 11 µM (inactive) | 10.4 µM (inactive) | 2.25 µM (inactive) | 12.9 µM (inactive) | 19.4 µM (inactive) | 10.5 µM (inactive) |
| C[N+]1(c2ccccc2)C=C(c2ccccc2)SC1=S (centres undefined) | > 100 µM (inactive) | 30.6 µM (inactive) | > 100 µM (inactive) | 58.3 µM (inactive) | > 100 µM (inactive) | > 100 µM (inactive) | 23.1 µM (inactive) | 6.12 µM (inactive) | 48.9 µM (inactive) | > 100 µM (inactive) | > 100 | 1.87 µM (inactive) | > 100 µM (inactive) | > 100 µM (inactive) | 66.1 µM (inactive) | – | > 100 µM (inactive) | > 100 µM (inactive) | 7.43 µM (inactive) | 1.67 µM (inactive) |
| CC1(C)CC(=O)c2c(nc3c4c([nH]c(-c5ccc(Br)cc5)c24)CC(C)(C)C3)C1 | 23.8 µM (inactive) | 23.6 µM (inactive) | 22.4 µM (inactive) | 36.6 µM (inactive) | 29.7 µM (inactive) | 50.4 µM (inactive) | 19.8 µM (inactive) | 13.6 µM (inactive) | 66.7 µM (inactive) | 35.8 µM (inactive) | 31.3 | 22.8 µM (inactive) | 76.6 µM (inactive) | 55.6 µM (inactive) | 33 µM (inactive) | 30.7 µM (inactive) | 43.3 µM (inactive) | 53.6 µM (inactive) | 4.79 µM (inactive) | 23.2 µM (inactive) |
| NC1=CN(Cc2ccccc2)C2=N/C(=C\c3ccco3)C(=O)N12 | > 100 µM (inactive) | > 100 µM (inactive) | > 100 µM (inactive) | > 100 µM (inactive) | > 100 µM (inactive) | > 100 µM (inactive) | > 100 µM (inactive) | > 100 µM (inactive) | > 100 µM (inactive) | > 100 µM (inactive) | > 100 | > 100 µM (inactive) | > 100 µM (inactive) | > 100 µM (inactive) | > 100 µM (inactive) | > 100 µM (inactive) | > 100 µM (inactive) | > 100 µM (inactive) | > 100 µM (inactive) | > 100 µM (inactive) |
